The source of these data is patent US8283355B2, “Pyrimidine derivatives as POSH and POSH-AP inhibitors” (Proteologics, Ltd., priority 2006, dated 2012).

For one data set, the target named is T1, GST tagged hPOSH (Homo sapiens, UniProt Q7Z6J0).
T1 construct: a fused GST-RING subunit of POSH protein
T1 sequence (Q7Z6J0 12-53 limits assumed): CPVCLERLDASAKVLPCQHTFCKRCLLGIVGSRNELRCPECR
In words: HTS TR-FRET assay of POSH autoubiquitination. The class given is biochemical. The following applies: GST tagged hPOSH with E1, UbCH5c, ubiquitin-cryptate, read-out: IC50 (POSH autoubiquitination, in vitro assay). Here is the method:
In order to test compounds as inhibitors of POSH, a ubiquitin protein ligase (E3) containing a RING domain that mediates its own ubiquitination in a RING finger-dependent manner in the presence of E1 and E2, a HTS (high-throughput screening) homogeneous TR-FRET (Time-Resolved Fluorescence Resonance Energy Transfer) assay was conducted to monitor POSH autoubiquitination.
The assay employs an ubiquitin-activating enzyme (E1) and an ubiquitin-conjugating enzyme (E2), a fused GST-RING subunit of POSH protein and two fluorophore-conjugated detection reagents, namely anti-GSTXL665 and europium cryptate-labeled ubiquitin. This homogeneous assay is based on FRET between a Eu^3+ cryptate donor and a second fluorescent label (acceptor), allophycocyanin. Allophycocyanin, a 105 kDa phycobiliprotein, is crosslinked to ensure its stability.
The ubiquitination of POSH by ubiquitin cryptate and binding of the anti-GST tagged XL665 brings the fluorophores into close proximity allowing FRET reaction to occur.
Self-ubiquitination of hPOSH was determined by homogenous time-resolved fluorescence resonance energy transfer assay (TR-FRET). […]
where: S=actual fluorescence, B=Fluorescence obtained in parallel incubation without […], C=Fluorescence obtained in reaction without added compounds. […]
(In general: TR-FRET usually uses a lanthanide donor and a delayed reading to cut background.)

Data set [1] concerns HIV-1 p24 release from Jurkat cells. As to the kind of experiment: Assay for virus release (HIV-1 p24 / VLP release from transfected Jurkat cells). It counts as cell-based. The following applies: Human immunodeficiency virus 1, Jurkat, 24 h, read-out: IC50 in the virus release assay. The procedure:
The POSH inhibitor Compound 1 was tested for its efficiency of viral budding and GAG expression and processing in treated and untreated Jurkat cells. The concentration of extracellular GAG p24 was used as an indication of viral budding.
Jurkat cells were incubated with Compound 1 (5 μM) for either 1 or 3 days. The next day, cells were transfected with the plasmid pNLenyl (2 μg/ml). Virus-like particle (VLP) release was determined one day after transfection as follows: the culture medium of virus-expressing cells was collected and centrifuged at 500×g for 10 minutes. The resulting supernatant was passed through a 0.45 μm-pore filter and the filtrate was centrifuged at 14,000×g for 2 hours at 4° C. The corresponding cells were washed three times with phosphate-buffered saline (PBS) and then solubilized by incubation on ice for 15 minutes in lysis buffer containing the following components: […] Hepes-NaOH, (pH 7.5), 150 mM NaCl, 1.5 mM MgCl2, 0.3% NP-40, 0.5% sodium deoxycholate, 1 mM EDTA, 1 mM EGTA and 1:200 dilution of protease inhibitor cocktail (EMD Biosciences, Inc.). The cell detergent extract was then centrifuged for 15 minutes at 14,000×g at 4° C. […] Enhanced Chemi-Luminescence (ECL) (Amersham Biosciences, Corp.) was then detected by fluorescence imaging (Typhoon Instrument, Amersham Biosciences, Corp.).

In a further data set the test system is HIV-1IIIB. As to the kind of experiment: HIV cytoprotection assay, HIV-1IIIB in CEM-SS cells (MTS). It counts as cell-based. The following applies: for IC50: read-out: IC50 (concentration inhibiting virus replication by 50%). Here is the method: (§1) For the HIV cytoprotection assay, CEM-SS cells were used and the viruses HIV-1IIIb, HIV-1RF, or HIV-2ROD.
(§2) Briefly, virus and cells were mixed in the presence of a test compounds and incubated for 6 days. […] Each assay plate contained the following controls: cell control wells (cells only), virus control wells (cells plus virus), compound toxicity control wells (cells plus compound only), compound calorimetric control wells (compound only), as well as the experimental wells (compound plus cells plus virus). Cytoprotection and compound cytotoxicity were assessed by MTS (CellTiter® 96 Reagent, Promega, Madison Wis.) dye reduction, and the IC50 (concentration inhibiting virus replication by 50%), TC50 (concentration resulting in 50% cell death) and a calculated TI (therapeutic index TC50/IC50) were obtained. Each assay included the HIV reverse transcriptase inhibitor AZT as a positive control.

A short description of data set [2]: Compound cytotoxicity in CEM-SS cells (MTS). To be noted: human, read-out: TC50 (concentration resulting in 50% cell death). The class given is cell-based. Here is the method: as §1, §2
Another data set concerns HIV-2ROD. In words: HIV cytoprotection assay, HIV-2ROD in CEM-SS cells (MTS). The class given is cell-based. The following applies: for IC50: read-out: IC50 (concentration inhibiting virus replication by 50%). Here is the method: as §1, §2
The mark [3] stands for this setting: Human immunodeficiency virus 1, 144 h, HIV-1IIIB, CEM-SS cells, 6 days.

Where two headings read alike, the source gives them in different places.

Consider `Cc1cc(C)nc(NS(=O)(=O)c2ccc(NC(=O)/C(=C\c3cccs3)NC(=O)c3cccs3)cc2)n1` [Compound 1], for which the IC50 at GST tagged hPOSH amounted to 2000 nM; in data set [1], 48 µM; in the data set on HIV-1IIIB (Human immunodeficiency virus 1, CEM-SS, 144 h), 48 µM; in the data set with HIV-2ROD (Human immunodeficiency virus 2, CEM-SS, 144 h), 52.8 µM. In addition, the “Antiviral Index (TI), TC50/IC50” value in the data set with HIV-1IIIB (HIV-1IIIB, CEM-SS cells) is listed as more than 2.07; in the data set with HIV-2ROD (HIV-2ROD, CEM-SS cells), more than 5.68. For the same molecule, the CC50 at 6 days in data set [2] (Table 1 (HIV-1IIIB experiment)) was more than 100 µM; in data set [2] (Table 2 (HIV-2ROD experiment)), more than 300 µM.
In the case of `O=C(Nc1ccc(S(=O)(=O)Nc2ncccn2)cc1)/C(=C\c1cccs1)NC(=O)c1cccs1` [Compound 2], the “Antiviral Index (TI), TC50/IC50” value in the data set with HIV-1IIIB (HIV-1IIIB, CEM-SS cells) is 28.5; in the data set with HIV-2ROD (HIV-2ROD, CEM-SS cells) it was more than 10.2. Further, the IC50 in the data set with HIV-1IIIB (setting [3]) was determined as 3.99 µM; with HIV-2ROD (Human immunodeficiency virus 2, 144 h, HIV-2ROD, CEM-SS cells, 6 days), 29.5 µM. Moreover, the CC50 at 6 days is 114 µM in data set [2] (Table 1 (HIV-1IIIB experiment)) and more than 300 µM in data set [2] (Table 2 (HIV-2ROD experiment)).
As to `Cc1ccnc(NS(=O)(=O)c2ccc3c(c2)CCN3C(=O)/C(=C\c2cccs2)NC(=O)c2cccs2)n1` [Compound 5], in the data set on HIV-1IIIB (HIV-1IIIB, CEM-SS cells), the “Antiviral Index (TI), TC50/IC50” value is reported as more than 105; the “Effectiveness as anti-HIV-1IIIB agent compared to Compounds 1 and 2” value is listed as “far more effective”. The IC50 in the data set on HIV-1IIIB (setting [3]) was 2.85 µM. Besides, the CC50 at 6 days in data set [2] (Table 1 (HIV-1IIIB experiment)) was more than 300 µM.
